# How the values were obtained:
# [1] = target: BCL2 G101V (Homo sapiens, UniProt P10415, G101V); test: TR-FRET competitive binding assay, BCL2 G101V; details: BCL2 G101V; Ki determined from IC50; read-out: TR_FRET EKI_Bcl2 G101V
# Procedure, shortened: (§1)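 Ki derived from IC50 (11-point dilution, 520/495 nm emission ratio) for displacing a fluorescein-labelled PUMA peptide (2 or 20 nM). Target was 0.5 nM E. coli-expressed Halo-tagged BCL2 (1-207) or BCLXL (2-196), terbium-labelled on Halo. Incubation 2 h at 23°C in pH 7.5 Hepes with 150 mM NaCl and 5% DMSO.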
# [2] = tested on: BCL2 G101V; test: TR-FRET competitive binding assay, BCL2 G101V; set-up: species or system human; details: ratio Ki BCL2 G101V / Ki BCL2 WT
# Procedure, shortened: as §1
# [3] = target: BCLXL WT (Homo sapiens (Human), UniProt Q07817); test: TR-FRET competitive binding assay, BCLXL WT; details: for Ki: BCLXL WT, Ki determined from IC50, read-out: TR_FRET EKI BclxL; for TR_FRET EKI BCLxL/WT selectivty ratio: ratio Ki BCLxL / Ki BCL2 WT
# Procedure, shortened: as §1
# [4] = tested on: KMS-12-PE Bcl-2 WT; test: In vitro cytotoxicity CellTiter-Glo 48 h, KMS-12-PE Bcl-2 WT; assay type: cell-based; details: Homo sapiens, KMS-12-PE, C50 = concentration needed to reach 50% of the cellular viability
# Procedure, shortened: (§2)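 KMS-12-PE myeloma cells were lentivirally transduced with wild-type or G101V-mutant Bcl-2 and sorted by TagRFP. They were exposed to compounds as 11-point dose responses for 48 h at 37 °C, 5% CO2. Viability was read by CellTiter-Glo ATP luminescence, and C50 was the concentration giving 50% viability.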
# [5] = tested on: KMS-12-PE Bcl-2 G101V; test: In vitro cytotoxicity CellTiter-Glo 48 h, KMS-12-PE Bcl-2 G101V; assay type: cell-based; details: for Ratio (G101V/WT): C50 KMS-12-PE Bcl-2 G101V over C50 KMS-12-PE Bcl-2 WT; for IC50: Homo sapiens, KMS-12-PE, 48 h, CellTiter-Glo, C50 = concentration needed to reach 50% of the cellular viability
# Procedure, shortened: as §2
# [6] = target: BCL2 D103Y (Homo sapiens, UniProt P10415, D103Y); test: TR-FRET competitive binding assay, BCL2 D103Y; details: Ki determined from IC50, read-out: TR_FRET EKI_Bcl2 D103Y
# Procedure, shortened: as §1
# [7] = target: BCL2 WT (Homo sapiens (Human), UniProt P10415); test: TR-FRET competitive binding assay, BCL2 WT; details: Ki determined from IC50, read-out: TR_FRET EKI_Bcl2 WT
# Procedure, shortened: as §1
# Sequence of BCLXL WT (Q07817 other isoform, or with tags, fused parts or gaps): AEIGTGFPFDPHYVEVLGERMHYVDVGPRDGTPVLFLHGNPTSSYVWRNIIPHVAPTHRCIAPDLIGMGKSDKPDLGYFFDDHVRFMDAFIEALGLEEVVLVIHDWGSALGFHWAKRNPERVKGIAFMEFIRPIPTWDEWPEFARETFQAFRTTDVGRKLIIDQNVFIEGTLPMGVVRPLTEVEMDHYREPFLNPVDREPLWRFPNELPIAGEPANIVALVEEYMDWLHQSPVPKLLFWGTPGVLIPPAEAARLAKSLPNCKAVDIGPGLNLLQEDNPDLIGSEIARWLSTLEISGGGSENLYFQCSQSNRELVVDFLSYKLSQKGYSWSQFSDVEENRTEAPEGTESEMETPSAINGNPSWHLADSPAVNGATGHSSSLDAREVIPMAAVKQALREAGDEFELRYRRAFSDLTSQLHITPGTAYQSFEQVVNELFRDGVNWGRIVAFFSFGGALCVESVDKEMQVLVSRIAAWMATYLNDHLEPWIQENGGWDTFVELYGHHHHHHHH
SMILES,Ki [1] [nM],TR_FRET EKI G101V/WT selectivty ratio [2],Ki [3] [nM],TR_FRET EKI BCLxL/WT selectivty ratio [3],IC50 [4] [µM],Ratio (G101V/WT) [5],IC50 [5] [µM],Ki [6] [nM],Ki [7] [nM]
"Cc1c(N(C(=O)c2cc(-c3cc4c(cc3C(=O)N3Cc5ccccc5C[C@H]3CN3CCCCC3)CN(C(=O)Cc3ccc(OCCN5CCN(CC(F)F)CC5)cc3)CC4)n(C)c2C)c2ccc(O)cc2)cc(C#N)n1C [Example 112, N-(5-cyano-1,2-dimethylpyrrol-3-yl)-5-{2-[2-(4-{2-[4-(2,2-difluoroethyl)piperazin-1-yl]ethoxy}phenyl)acetyl]-7-{[(3S)-3-(piperidin-1-ylmethyl)-3,4-dihydro-1H-isoquinolin-2-yl]carbonyl}-3,4-dihydro-1H-isoquinolin-6-yl}-N-(4-hydroxyphenyl)-1,2-dimethylpyrrole-3-carboxamide]",0.3,5.6,7.1,134.0,0.0124,5.7,0.0707,0.1,0.05
"COc1cc(OCCN2CCOCC2)ccc1CC(=O)N1CCc2cc(-c3cc(C(=O)N(c4ccc(O)cc4)c4cc(C#N)n(C)c4C)c(C)n3C)c(C(=O)N3Cc4ccccc4C[C@H]3CN3CCCCC3)cc2C1 [Example 114, N-(5-cyano-1,2-dimethyl-1H-pyrrol-3-yl)-N-(4-hydroxyphenyl)-5-[2-(2-{2-methoxy-4-[2-(morpholin-4-yl)ethoxy]phenyl}acetyl)-7-[(3S)-3-[(piperidin-1-yl)methyl]-1,2,3,4-tetrahydroisoquinoline-2-carbonyl]-1,2,3,4-tetrahydroisoquinolin-6-yl]-1,2-dimethyl-1H-pyrrole-3-carboxamide]",0.2,3.9,4.3,84.3,0.0099,6.09,0.0602,0.1,0.05
"Cc1c(N(C(=O)c2cc(-c3cc4c(cc3C(=O)N3Cc5ccccc5C[C@H]3CN3CCCCC3)CN(C(=O)Cc3ccc(OCCN(C)CCF)cc3)CC4)n(C)c2C)c2ccc(O)cc2)cc(C#N)n1C [Example 116, N-(5-cyano-1,2-dimethyl-1H-pyrrol-3-yl)-5-{2-[2-(4-{2-[(2-fluoroethyl)(methyl)amino]ethoxy}phenyl)acetyl]-7-[(3S)-3-[(piperidin-1-yl)methyl]-1,2,3,4-tetrahydroisoquinoline-2-carbonyl]-1,2,3,4-tetrahydroisoquinolin-6-yl}-N-(4-hydroxyphenyl)-1,2-dimethyl-1H-pyrrole-3-carboxamide]",0.4,7.0,3.3,61.1,0.0111,5.25,0.0583,0.19,0.05
"Cc1c(N(C(=O)c2cc(-c3cc4c(cc3C(=O)N3Cc5ccccc5C[C@H]3CN3CCCCC3)CN(C(=O)Cc3ccc(OCCC5CCOCC5)nc3)CC4)n(C)c2C)c2ccc(O)cc2)cc(C#N)n1C [Example 118, N-(5-cyano-1,2-dimethyl-1H-pyrrol-3-yl)-N-(4-hydroxyphenyl)-1,2-dimethyl-5-[2-(2-{6-[2-(oxan-4-yl)ethoxy]pyridin-3-yl}acetyl)-7-[(3S)-3-[(piperidin-1-yl)methyl]-1,2,3,4-tetrahydroisoquinoline-2-carbonyl]-1,2,3,4-tetrahydroisoquinolin-6-yl]-1H-pyrrole-3-carboxamide]",0.5,5.1,5.2,52.5,0.0107,7.61,0.0814,0.14,0.1
"Cc1c(N(C(=O)c2cc(-c3cc4c(cc3C(=O)N3Cc5ccccc5C[C@H]3CN3CCCCC3)CN(C(=O)Cc3ccc(OCCN5CCN(C)CC5)cc3)CC4)n(C)c2C)c2ccc(O)cc2)cc(C#N)n1C [Example 119, N-(5-cyano-1,2-dimethyl-1H-pyrrol-3-yl)-N-(4-hydroxyphenyl)-1,2-dimethyl-5-[2-(2-{4-[2-(4-methylpiperazin-1-yl)ethoxy]phenyl}acetyl)-7-[(3S)-3-[(piperidin-1-yl)methyl]-1,2,3,4-tetrahydroisoquinoline-2-carbonyl]-1,2,3,4-tetrahydroisoquinolin-6-yl]-1H-pyrrole-3-carboxamide]",0.2,5.6,2.2,56.4,0.0284,2.57,0.073,0.14,0.04
"Cc1c(N(C(=O)c2cc(-c3cc4c(cc3C(=O)N3Cc5ccccc5C[C@H]3CN3CCCCC3)CN(C(=O)Cc3ccc(OCCN5CCN(CCF)CC5)cc3)CC4)n(C)c2C)c2ccc(O)cc2)cc(C#N)n1C [Example 122, N-(5-cyano-1,2-dimethyl-1H-pyrrol-3-yl)-5-{2-[2-(4-{2-[4-(2-fluoroethyl)piperazin-1-yl]ethoxy}phenyl)acetyl]-7-[(3S)-3-[(piperidin-1-yl)methyl]-1,2,3,4-tetrahydroisoquinoline-2-carbonyl]-1,2,3,4-tetrahydroisoquinolin-6-yl}-N-(4-hydroxyphenyl)-1,2-dimethyl-1H-pyrrole-3-carboxamide]",0.3,5.1,3.7,69.8,0.0167,3.96,0.0662,0.13,0.05
"Cc1c(C(=O)N(c2ccc(O)cc2)c2cc(C#N)n(C(F)F)c2C)cc(-c2cc3c(cc2C(=O)N2Cc4ccccc4C[C@H]2CN2CCCCC2)CN(C(=O)Cc2ccc(OCCN4C[C@@H](C)O[C@@H](C)C4)cc2)CC3)n1C [Example 129, N-[5-cyano-1-(difluoromethyl)-2-methylpyrrol-3-yl]-5-{2-[2-(4-{2-[cis-2,6-dimethylmorpholin-4-yl]ethoxy}phenyl)acetyl]-7-{[(3S)-3-(piperidin-1-ylmethyl)-3,4-dihydro-1H-isoquinolin-2-yl]carbonyl}-3,4-dihydro-1H-isoquinolin-6-yl}-N-(4-hydroxyphenyl)-1,2-dimethylpyrrole-3-carboxamide]",0.8,5.5,14.4,96.0,0.014,4.5143,0.0632,0.24,0.15
"Cc1c(N(C(=O)c2cc(-c3cc4c(cc3C(=O)N3Cc5ccccc5C[C@H]3CN3CCC(F)(F)CC3)CN(C(=O)Cc3ccc(OCCN5CCOCC5)cc3F)CC4)n(C)c2C)c2ccc(O)cc2)cc(C#N)n1C [Example 130, N-(5-cyano-1,2-dimethyl-1H-pyrrol-3-yl)-5-{7-[(3S)-3-[(4,4-difluoropiperidin-1-yl)methyl]-1,2,3,4-tetrahydroisoquinoline-2-carbonyl]-2-(2-{2-fluoro-4-[2-(morpholin-4-yl)ethoxy]phenyl}acetyl)-1,2,3,4-tetrahydroisoquinolin-6-yl}-N-(4-hydroxyphenyl)-1,2-dimethyl-1H-pyrrole-3-carboxamide]",2.3,5.8,6.1,15.3,0.0055,4.69,0.0258,1.33,0.4
"Cc1c(N(C(=O)c2cc(-c3cc4c(cc3C(=O)N3Cc5ccccc5C[C@H]3CN3CCCCC3)CN(C(=O)Cc3ccc(CCN5CCC(F)(F)CC5)cc3)CC4)n(C)c2C)c2ccc(O)cc2)cc(C#N)n1C [Example 131, N-(5-cyano-1,2-dimethylpyrrol-3-yl)-5-[2-(2-{4-[2-(4,4-difluoropiperidin-1-yl)ethyl]phenyl}acetyl)-7-{[(3S)-3-(piperidin-1-ylmethyl)-3,4-dihydro-1H-isoquinolin-2-yl]carbonyl}-3,4-dihydro-1H-isoquinolin-6-yl]-N-(4-hydroxyphenyl)-1,2-dimethylpyrrole-3-carboxamide]",1.5,6.5,8.7,37.8,0.0361,6.759,0.244,0.53,0.23

# Source: patent publication US20250179047A1, “5-[7-(3,4-DIHYDRO-1H-ISOQUINOLINE-2-CARBONYL)-1,2,3,4 TETRAHYDROISOQUINOLIN-6-YL]-1H-PYRROLE-3-CARBOXAMIDE DERIVATIVES, PHARMACEUTICAL COMPOSITIONS CONTAINING THEM AND THEIR USES AS PRO-APOPTOTIC AGENTS” (LES LABORATOIRES SERVIER, priority 2022, published 2025)
